Assay results as given in ChEMBL document CHEMBL5584244, “Discovery of novel pyrrolo[2,1-c][1,4]benzodiazepine-3,11-dione (PBD) derivatives as selective HDAC6 inhibitors for the efficient treatment of idiopathic pulmonary fibrosis (IPF) in vitro and in vivo” (Eur J Med Chem, 2024).
Calls of active or inactive are those of the source. No cut-off for these calls is given here.

Key:
HELF = assay: Antifibrotic activity against TGF-beta1-induced HELF cells assessed as reduction in viability at 10 uM after 48 hrs by MTT assay; assay type: functional, cell-based; conditions: Homo sapiens
[1] = Cytotoxicity against HELF cells assessed as reduction in viability at 10 uM after 48 hrs by MTT assay; assay type: toxicity, cell-based; conditions: human
[2] = Cytotoxicity against HELF cells assessed as reduction in viability at 1 to 300 uM after 48 hrs under without FBS condition by MTT assay; assay type: toxicity, cell-based; conditions: human, dose 1-300 µM
Histone deacetylase 1 = Histone deacetylase 1 (Homo sapiens, UniProt Q13547); assay: Inhibition of human HDAC1 incubated for 10 mins and measured after 30 mins by ELISA
Sequence of Histone deacetylase 1 (Q13547 whole entry): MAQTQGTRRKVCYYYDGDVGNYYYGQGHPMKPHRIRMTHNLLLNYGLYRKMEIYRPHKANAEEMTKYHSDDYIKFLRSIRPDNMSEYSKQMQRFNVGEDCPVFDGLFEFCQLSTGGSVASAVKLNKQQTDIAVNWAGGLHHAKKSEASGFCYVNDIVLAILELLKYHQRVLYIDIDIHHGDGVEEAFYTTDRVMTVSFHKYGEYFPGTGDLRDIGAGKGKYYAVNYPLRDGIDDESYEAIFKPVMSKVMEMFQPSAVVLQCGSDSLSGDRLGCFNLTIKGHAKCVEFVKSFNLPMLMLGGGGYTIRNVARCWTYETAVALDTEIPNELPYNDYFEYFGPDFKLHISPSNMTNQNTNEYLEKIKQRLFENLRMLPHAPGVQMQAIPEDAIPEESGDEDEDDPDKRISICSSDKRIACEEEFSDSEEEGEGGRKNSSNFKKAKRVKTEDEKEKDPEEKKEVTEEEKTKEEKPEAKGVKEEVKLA

[3] = target: T1, Protein deacetylase HDAC6 (Homo sapiens, UniProt Q9UBN7); assay: Inhibition of human HDAC6 using Ac-Lys (Ac)-AMC as substrate incubated for 120 mins by fluorescence analysis
T1 sequence (Q9UBN7 whole entry): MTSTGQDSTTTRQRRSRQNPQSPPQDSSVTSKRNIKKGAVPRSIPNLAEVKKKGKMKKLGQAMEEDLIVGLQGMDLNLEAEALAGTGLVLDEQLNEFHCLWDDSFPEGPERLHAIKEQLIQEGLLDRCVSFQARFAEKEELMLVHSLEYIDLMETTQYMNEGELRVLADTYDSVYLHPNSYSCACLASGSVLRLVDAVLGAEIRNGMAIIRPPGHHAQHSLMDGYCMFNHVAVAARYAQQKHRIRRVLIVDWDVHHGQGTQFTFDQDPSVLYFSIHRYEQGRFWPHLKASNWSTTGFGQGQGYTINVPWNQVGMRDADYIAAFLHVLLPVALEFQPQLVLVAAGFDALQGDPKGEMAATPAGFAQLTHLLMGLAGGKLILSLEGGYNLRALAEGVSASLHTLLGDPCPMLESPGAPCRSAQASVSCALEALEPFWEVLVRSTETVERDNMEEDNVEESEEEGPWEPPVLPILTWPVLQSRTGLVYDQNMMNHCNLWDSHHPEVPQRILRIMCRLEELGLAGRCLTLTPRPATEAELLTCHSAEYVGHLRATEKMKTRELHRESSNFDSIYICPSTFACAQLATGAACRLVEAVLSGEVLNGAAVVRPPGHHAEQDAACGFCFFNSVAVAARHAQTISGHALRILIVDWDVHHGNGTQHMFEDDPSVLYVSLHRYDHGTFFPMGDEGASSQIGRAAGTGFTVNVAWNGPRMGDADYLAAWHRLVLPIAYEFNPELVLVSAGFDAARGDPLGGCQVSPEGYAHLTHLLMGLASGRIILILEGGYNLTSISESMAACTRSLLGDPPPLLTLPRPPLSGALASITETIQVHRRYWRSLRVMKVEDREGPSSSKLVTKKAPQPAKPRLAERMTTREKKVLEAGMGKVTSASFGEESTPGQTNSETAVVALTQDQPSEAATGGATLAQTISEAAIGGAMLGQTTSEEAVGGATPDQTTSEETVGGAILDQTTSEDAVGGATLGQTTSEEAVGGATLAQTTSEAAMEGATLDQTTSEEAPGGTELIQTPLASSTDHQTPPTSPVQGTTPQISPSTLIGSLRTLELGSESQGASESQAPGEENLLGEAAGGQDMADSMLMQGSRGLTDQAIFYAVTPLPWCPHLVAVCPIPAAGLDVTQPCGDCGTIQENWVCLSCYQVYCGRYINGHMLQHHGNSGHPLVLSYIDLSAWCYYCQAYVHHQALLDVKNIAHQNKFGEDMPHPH

Homo sapiens = organism: Homo sapiens; assay: Selectivity index, ratio IC50 inhibition of human HDAC1 to IC50 for inhibition of human HDAC6 using Ac-Lys (Ac)-AMC as substrate
[4] = target: T1, Protein deacetylase HDAC6; assay: Inhibition of recombinant human full length HDAC6 using Boc-Lys (Ac)-AMC as substrate incubated for 120 mins by fluorescence analysis

SMILES | Activity (HELF) | Activity [1] | Activity [2] | IC50 (Histone deacetylase 1) [nM] | IC50 [3] [nM] | Ratio IC50 (Homo sapiens) | IC50 [4] [nM]
CN1CCc2c(c3ccccc3n2Cc2ccc(C(=O)NO)cc2)C1 [TUBASTATIN A] | Active | Non-Toxic | Toxic |  |  |  | 
O=C(CCCCCCCN1C(=O)[C@@H]2CCC(=O)N2Cc2ccccc21)NO |  |  |  | 789 | 21.4 | 36.8 | 12.5
